As a reminder, the mortality is the share of the test organisms that died. For orientation: logP means a log measure of how a compound divides between an organic and an aqueous phase.

This is an account of results in ChEMBL document CHEMBL3046178, “Quantitative Structure-Activity Relationships of Larvicidal N-[5-(Substituted phenyl)-1, 3, 4-thiadiazol-2-yl]-benzamides in the Inhibition of N-Acetylglucosamine Incorporation into a Cultured Integument System” (J Pestic Sci, 1996).

Data set [1] relates to Chilo suppressalis. Put plainly: Inhibition of chitin synthesis in 20-hydroxyecdysone-stimulated Chilo suppressalis (rice stem borer) larval integument assessed as inhibition of N-acetyl-{1-14C]-glucosamine at pI50 after 72 hr by liquid scintillation counting. In kind it is functional.
Data set [2] deals with Chilo suppressalis. Put plainly: Insecticidal activity against Chilo suppressalis (rice stem borer) third-instar larvae assessed as mortality at pI50 after 5 days. In kind it is functional.
The subject of data set [3] is Chilo suppressalis. Kind of data set: Insecticidal activity against Chilo suppressalis (rice stem borer) third-instar larvae assessed as mortality after 5 days. The format is functional.
The nature of data set [4]: 1-octanol-water partition co-efficient, log P of the compound. The format is physicochemical.
In data set [5] the test system is Chilo suppressalis. Kind of data set: Insecticidal activity against Chilo suppressalis (rice stem borer) third-instar larvae assessed as mortality after 5 days in presence of piperonyl butoxide. The format is functional.
Data set [6] concerns Chilo suppressalis. Kind of data set: Insecticidal activity against Chilo suppressalis (rice stem borer) third-instar larvae assessed as mortality at pI50 after 5 days in presence of piperonyl butoxide. In kind it is functional. The arrangement: concentration or dose not given beside the values.

Regarding `O=C(Nc1nnc(-c2ccc(Cl)cc2)s1)c1ccccc1Cl`, the “inhibition (INH)” value in the data set with Chilo suppressalis [1] was found to be 37%. In addition, the mortality in the data set with Chilo suppressalis [2] came to 41%. The pLD50 in the data set on Chilo suppressalis [3] is given as below 4.6.

The compound `COc1cccc(OC)c1C(=O)Nc1nnc(-c2ccc(Cl)cc2)s1` registered a lipophilicity (logP) in data set [4] of 3.96. Besides, the pLD50 with Chilo suppressalis [3] was 5.96; in the data set on Chilo suppressalis [5], below 5.96.

Take `O=C(Nc1nnc(-c2ccc(Cl)cc2)s1)c1c(F)cccc1F`: the “inhibition (INH)” value with Chilo suppressalis [1] is on record as 42%. Besides, in the data set with Chilo suppressalis [2], the mortality is on record as 0%. Also, the pLD50 in the data set on Chilo suppressalis [3] is given as below 4.6.

As to `O=C(Nc1nnc(-c2ccc(Cl)cc2)s1)c1ccccc1F`, in the data set with Chilo suppressalis [2], the mortality stood at 0%. Besides, in the data set on Chilo suppressalis [3], the pLD50 was below 4.6.

Consider `O=C(Nc1nnc(-c2ccc(Cl)cc2)s1)c1ccccc1I`, for which the “inhibition (INH)” value in the data set with Chilo suppressalis [1] worked out at 17%. Further, the mortality in the data set with Chilo suppressalis [2] is given as 5%. The pLD50 in the data set with Chilo suppressalis [3] is on record as below 4.6.

In the case of `Cc1ccccc1C(=O)Nc1nnc(-c2ccc(Cl)cc2)s1`, in the data set with Chilo suppressalis [2], the mortality was found to be 0%. For the same compound, in the data set with Chilo suppressalis [3], the pLD50 is below 4.6.

`Cc1cccc(C)c1C(=O)Nc1nnc(-c2ccc(Cl)cc2)s1`: the pLD50 in the data set on Chilo suppressalis [3] came to 5.48.

With `O=C(NC(=O)c1c(F)cccc1F)Nc1ccc(Cl)cc1` [DIFLUBENZURON], the pLD50 with Chilo suppressalis [5] worked out at 6.64.

Consider `COc1ccc(-c2nnc(NC(=O)c3c(OC)cccc3OC)s2)cc1`, for which, in data set [4], the logP amounted to 3.56. For the same compound, in the data set with Chilo suppressalis [5], the pLD50 is reported as below 5. Also, in the data set with Chilo suppressalis [6], the mortality is 0%.

For the compound `O=C(Nc1nnc(-c2ccc(Cl)cc2)s1)c1c(Cl)cccc1Cl`, in the data set with Chilo suppressalis [2], the mortality is given as 5%. For the same compound, the pLD50 with Chilo suppressalis [3] was below 5.

On to `CCOc1ccccc1C(=O)Nc1nnc(-c2ccc(Cl)cc2)s1`, for which, in the data set on Chilo suppressalis [1], the “inhibition (INH)” value is 23%. The mortality with Chilo suppressalis [2] worked out at 10%. For the same compound, the pLD50 with Chilo suppressalis [3] is below 5.6.

`O=C(Nc1nnc(-c2ccc(Cl)cc2)s1)c1ccccc1[N+](=O)[O-]`: in the data set on Chilo suppressalis [1], the “inhibition (INH)” value came out at 0%. Also, the mortality in the data set on Chilo suppressalis [2] is on record as 0%. The pLD50 in the data set with Chilo suppressalis [3] is below 4.6.

In data set [4], `COc1cccc(OC)c1C(=O)Nc1nnc(-c2ccc(F)cc2)s1` came in with a logP of 3.5. For the same compound, the pLD50 in the data set with Chilo suppressalis [5] was below 5. Further, the mortality in the data set on Chilo suppressalis [6] is 14%.

Take `O=C(Nc1nnc(-c2ccc(Cl)cc2)s1)c1ccccc1`: in the data set with Chilo suppressalis [1], the “inhibition (INH)” value turned out to be 10%. Further, in the data set with Chilo suppressalis [2], the mortality stood at 0%. In addition, the pLD50 in the data set on Chilo suppressalis [3] is on record as below 5.6.

The compound `CCOc1ccc(-c2nnc(NC(=O)c3c(OC)cccc3OC)s2)cc1` displayed a logP in data set [4] of 3.75. For the same compound, the pLD50 with Chilo suppressalis [5] is given as below 5. Further, in the data set with Chilo suppressalis [6], the mortality is given as 6%.

For `COc1cccc(OC)c1C(=O)Nc1nnc(-c2ccc(C#N)cc2)s1`, the lipophilicity (logP) in data set [4] is 3.14.

On to `COc1cccc(OC)c1C(=O)Nc1nnc(-c2ccccc2)s1`, for which the logP in data set [4] amounted to 3.5. Besides, the pLD50 in the data set on Chilo suppressalis [5] was below 5. Moreover, the mortality in the data set with Chilo suppressalis [6] is 0%.

The compound `COc1cccc(OC)c1C(=O)Nc1nnc(-c2ccc([N+](=O)[O-])cc2)s1` gave a log partition coefficient (logP) in data set [4] of 2.54. In the data set with Chilo suppressalis [5], the pLD50 is reported as below 5. In the data set with Chilo suppressalis [6], the mortality amounted to 0%.

`CCN(CC)c1ccccc1C(=O)Nc1nnc(-c2ccc(Cl)cc2)s1`: in the data set on Chilo suppressalis [1], the “inhibition (INH)” value turned out to be 8%. Also, in the data set on Chilo suppressalis [2], the mortality is listed as 0%. Further, the pLD50 in the data set on Chilo suppressalis [3] was below 5.

Turning to `COc1ccccc1C(=O)Nc1nnc(-c2ccc(Cl)cc2)s1`, the pLD50 with Chilo suppressalis [3] was determined as 5.96.

Consider `O=C(Nc1nnc(-c2ccc(Cl)cc2)s1)c1ccccc1C(F)(F)F`, for which the “inhibition (INH)” value with Chilo suppressalis [1] is reported as 7%. The mortality in the data set on Chilo suppressalis [2] is listed as 0%. Besides, the pLD50 with Chilo suppressalis [3] is recorded as below 4.6.

On to `COc1cccc(OC)c1C(=O)Nc1nnc(-c2ccc(Br)cc2)s1`, for which the logP in data set [4] came to 3.96. For the same compound, in the data set with Chilo suppressalis [5], the pLD50 is listed as 5.57.

In the case of `COc1cccc(OC)c1C(=O)Nc1nnc(-c2ccc(C)cc2)s1`, the logP in data set [4] came out at 3.85. In addition, the pLD50 in the data set with Chilo suppressalis [5] turned out to be 5.

Take `O=C(Nc1nnc(-c2ccc(Cl)cc2)s1)c1ccccc1Br`: in the data set on Chilo suppressalis [1], the “inhibition (INH)” value worked out at 32%. For the same compound, in the data set on Chilo suppressalis [2], the mortality turned out to be 0%. Moreover, the pLD50 with Chilo suppressalis [3] is given as below 4.6.
